Source: ChEMBL document CHEMBL5532691, “Anti-cancer activity and mechanism of flurbiprofen organoselenium compound RY-1-92 in non-small cell lung cancer” (RSC Med Chem, 2024)

Columns and labels:
BEAS-2B [1] = assay: Cytotoxicity against human BEAS-2B cells assessed as reduction in cell viability at 25 uM measured after 48 hrs by MTT assay; assay type: toxicity, cell-based
BEAS-2B [2] = assay: Cytotoxicity against human BEAS-2B cells assessed as reduction in cell viability at 1.2 mM measured after 48 hrs by MTT assay; assay type: toxicity, cell-based; conditions: 1200 µM

Compound	Activity (BEAS-2B [1])	Activity (BEAS-2B [2])
O=c1[nH]cc(F)c(=O)[nH]1 [FLUOROURACIL]	Toxic	–
CC1=C(CC(=O)O)c2cc(F)ccc2/C1=C\c1ccc([S+](C)[O-])cc1 (configuration not stated) [SULINDAC]	–	Toxic
